IC50, MIC and viability data for 17 molecules are collected here from patent US11713318B2, “Short conjugated oligoelectrolytes and uses thereof” (The Regents Of The University Of California, priority 2018, dated 2023).

The subject of data set [1] is Hep G2 (ATCC HB-8065) cells. Briefly: Cytotoxicity, MTT assay. In kind it is cell-based. The note with it: Homo sapiens, HepG2, 24 h. As for the experimental part: (§1) Before removing the frozen cell stocks from liquid nitrogen, culture medium was pre-warmed to 37° C. The frozen tube was then removed from liquid nitrogen and placed into a 37° C. water bath and shaken gently to thaw the cell stock as quickly as possible. A small portion of the pre-warmed culture medium was added to the cell solution. The cell suspension was then centrifuged at 1000 r/min for 3 minutes. The supernatant was discarded and the cells were resuspended in fresh culture medium.
(§2) NIH 3T3 (ATCC CRL-1658) and Hep G2 (ATCC HB-8065) cells were cultured with DMEM+10% FBS in 100 mm dishes. Cells were lifted for subculture or testing when confluence reached ˜60% by treating with 1× trypsin (incubated for 3 min at 37° C.). J774 (ATCC TIB-67) cells were cultured with DMEM+10% FBS in 100 mm dishes. Cells were lifted for subculture or testing when confluence reached ˜80% using a cell scraper. RAW264.7 (ATCC TIB-71) cells were cultured with DMEM+10% heat-inactivated FBS+1% pen/strep in T75 flasks. Cells were lifted for subculture or testing when confluence reached ˜80% using a cell scraper.
(§3) • 1. Cells were lifted and resuspended in culture medium. The number of cells in the cell suspension was determined using an auto-cell counter: 10 μL of the cell suspension was mixed with 10 μL 1× trypan blue (filtered with 0.2 μm PES filter) and the mixture was loaded onto a cell counting slide. Based on the concentration of viable cells, the cell suspension was further diluted to achieve the desired density. • 2. Cells were seeded in 96 well plates by adding 100 μL final cell suspension column-by-column using a multichannel pipette (5000 cells/well for NIH 3T3, 10000 cells/well for Hep G2, J774 and RAW264.7). The outer wells were block with PBS to reduce the effects of evaporation. One column was filled with only culture medium as a blank. Cells were incubated overnight before adding the test articles. • 3. Test articles were dissolved in 1×PBS (or DMSO) to obtain stocks solution. Stock solutions were pre-warmed before use. […] Serial dilutions (2-fold) of the 10× solutions were made in sterile culture tubes by diluting in 1×PBS (8 dilutions to yield 9 test concentrations). 900 μL of culture media was added to each tube to obtain final drug solution containing 10% PBS (or less than 1% DMSO) for each experimental group. • 4. The original culture medium was gently removed from the 96-well plates using a pipette. 100 μL of the test article solutions prepared in Step 3 were added to rows 2-7 of each column to obtain six replicates for each concentration. Plates were then incubated for 24 hours. • 5. MTT solutions were prepared by dissolving commercial MTT powder in 1×PBS to a concentration of 5 mg/mL. After passing through a 0.22 μm PES filter, the MTT solution was divided into 1 mL portions in sterile centrifuge tubes and stored at −20° C. • 6. MTT stock solutions were removed from the freezer to thaw at room temperature. Before adding MTT solutions, cell cultures were visually inspected and imaged using a microscope (to use as a comparison with MTT results). 10 μL of the 5 mg/mL MTT solution was added to each well and the plate was incubated for 4 hours. • 7. After 4 h incubation, the culture medium/MT solution was removed gently using a pipette. 100 μL of DMSO was added to each well using a multichannel pipette. The 96-well plates were analyzed in a plate reader using the following method: shake for 5 minutes, wait for 30 seconds, and measure absorbance at 570 nm. • 8. Data processing: The average of background Abg was calculated from the blank column. All other data was first treated by subtracting Abg. The average A. and standard deviation Se of each experimental group and the average Ac and standard deviation Sc for control group (with pure culture medium incubation) were then calculated. The cell viability was determined as Ae/Ac×100% and corresponding error as Se/Ae×100%. Significant outliers in any experimental or control group were removed. […]
A general note: Formazan colour is commonly taken as a measure of viable cells.

Data set [2] concerns NIH 3T3 (ATCC CRL-1658) cells. The data set can be described thus: Cytotoxicity, MTT assay. In kind it is cell-based. The note with it: Mus musculus. As for the experimental part: as §1, §2, §3
The next data set deals with E. coli K12 (ATCC 47076). Briefly: MIC broth microdilution method, Table 3. Conditions: Escherichia coli, ATCC47076. A general note: Broth dilution looks for growth in wells or tubes with falling amounts of substance.
The next data set can be described thus: Cytotoxicity, MTT assay. It counts as cell-based. Conditions: human, Hep G2, at the concentration given as IC50 bound, read-out: cell viability at the highest or lowest test concentration. As for the experimental part: as §1, §2, §3
Data set [3] concerns S. epidermidis (ATCC 14990). Briefly: MIC broth microdilution method, Table 3. Conditions: Staphylococcus epidermidis, ATCC14990.
Setting [4] is: NIH3T3, NIH 3T3, MTT, 24 hours incubation, read-out: IC50.
The mark [5] stands for this setting: Hep G2, MTT, 24 hours incubation, read-out: IC50.

Like-named read-outs stand apart in the source and are kept apart here.

The IC50 is the concentration that inhibits the measured activity by half. Consider `C[N+](C)(C)CCCCCCCCOc1cc(/C=C/c2cc(OCCCCCCCC[N+](C)(C)C)cc(OCCCCCCC[N+](C)(C)C)c2)cc(OCCCCCCC[N+](C)(C)C)c1.[I-].[I-].[I-].[I-]` [Formula B], for which the IC50 in data set [1] stood at 9.9 µg/mL.

Usually MIC stands for the least concentration at which growth counts as inhibited. A higher MIC goes with a less susceptible organism. In the case of `CCCC[N+](C)(CCCCOc1cc(/C=C/c2ccc(/C=C/c3cc(OCCCC[N+](C)(CCCC)CCOCCOC)cc(OCCCC[N+](C)(CCCC)CCOCCOC)c3)cc2)cc(OCCCC[N+](C)(CCCC)CCOCCOC)c1)CCOCCOC` (centres unmarked) [Formula GG], the IC50 in data set [2] (setting [4]) is 77.8 µg/mL. Moreover, 32 µg/mL was the least that counted as inhibitory against E. coli K12 (ATCC 47076) (MIC).

For the molecule `C[C@@H](O)[C@H]1C(=O)N2C(C(=O)O)=C(S[C@@H]3CN[C@H](C(=O)N(C)C)C3)[C@H](C)[C@H]12` [Meropenem, reference compound], in “Cytotoxicity, MTT assay” (Hep G2 (ATCC HB-8065) cells), the viability at 24 h is 96%. Besides, in data set [1] (setting [5]), the IC50 was greater than 128 µg/mL.

In turn, `C(=C\c1cc(OCCCCCC[n+]2ccccc2)cc(OCCCCCC[n+]2ccccc2)c1)/c1cc(OCCCCCC[n+]2ccccc2)cc(OCCCCCC[n+]2ccccc2)c1.[I-].[I-].[I-].[I-]` [Formula C] displayed an IC50 in data set [1] of 29.7 µg/mL.

As for `C[N+](C)(C)CCCOc1cc(/C=C/c2ccc(/C=C/c3cc(OCCC[N+](C)(C)C)cc(OCCC[N+](C)(C)C)c3)cc2)cc(OCCC[N+](C)(C)C)c1` [Formula X], the viability at 24 h in the data set “Cytotoxicity, MTT assay” (Hep G2 (ATCC HB-8065) cells) amounted to 73%. The IC50 in data set [1] (setting [5]) is greater than 1020 µg/mL. This molecule displayed an MIC with E. coli K12 (ATCC 47076) of 64 µg/mL.

Consider `C[N+](C)(CCCOc1cc(/C=C/c2ccc(/C=C/c3cc(OCCC[N+](C)(C)CC(O)CO)cc(OCCC[N+](C)(C)CC(O)CO)c3)cc2)cc(OCCC[N+](C)(C)CC(O)CO)c1)CC(O)CO` (centres unmarked) [Formula OO], for which the MIC in data set [3] was greater than 64 µg/mL; against E. coli K12 (ATCC 47076), greater than 128 µg/mL. In addition, in the data set “Cytotoxicity, MTT assay” (Hep G2 (ATCC HB-8065) cells), the viability at 24 h stood at 61%. Also, the half-maximal inhibitory concentration (IC50) in data set [1] (setting [5]) is greater than 1020 µg/mL.

As for `CC[N+](C)(C)CCCOc1cc(/C=C/c2ccc(/C=C/c3cc(OCCC[N+](C)(C)CC)cc(OCCC[N+](C)(C)CC)c3)cc2)cc(OCCC[N+](C)(C)CC)c1` [Formula Y], in the data set “Cytotoxicity, MTT assay” (Hep G2 (ATCC HB-8065) cells), the viability at 24 h stood at 61%. In data set [1] (setting [5]), the IC50 is greater than 1020 µg/mL. Besides, it took 32 µg/mL to inhibit growth with E. coli K12 (ATCC 47076) (MIC).

Take `C[N+](C)(C)CCCCCCN(CCCCCC[N+](C)(C)C)c1ccc(/C=C/c2ccc(/C=C/c3ccc(/C=C/c4ccc(N(CCCCCC[N+](C)(C)C)CCCCCC[N+](C)(C)C)cc4)cc3)cc2)cc1` [Formula VV]: the viability at 24 h in “Cytotoxicity, MTT assay” (Hep G2 (ATCC HB-8065) cells) amounted to 64%. For the same molecule, the IC50 in data set [1] (setting [5]) is greater than 128 µg/mL.

On to `CCCCCC[N+](C)(C)CCOc1cc(/C=C/c2ccc(/C=C/c3cc(OCC[N+](C)(C)CCCCCC)cc(OCC[N+](C)(C)CCCCCC)c3)cc2)cc(OCC[N+](C)(C)CCCCCC)c1.[I-].[I-].[I-].[I-]` [Formula H], for which the half-maximal inhibitory concentration (IC50) in data set [1] (setting [5]) came to 13 µg/mL. It took 4 µg/mL to inhibit growth in the data set on E. coli K12 (ATCC 47076) (MIC).

Regarding `C[N+](C)(C)CCCCCCOc1cc(/C=C/c2ccc(/C=C/c3ccccc3)cc2)cc(OCCCCCC[N+](C)(C)C)c1OCCCCCC[N+](C)(C)C` [Formula WW], the MIC in data set [3] was 2 µg/mL; in the data set with E. coli K12 (ATCC 47076), 16 µg/mL. The IC50 in data set [1] (setting [5]) was determined as 45.4 µg/mL; in data set [2] (setting [4]), 30.9 µg/mL.

Molecule `CCCCCC[N+](C)(CCCCOc1cc(/C=C/c2ccc(/C=C/c3cc(OCCCC[N+](C)(CCCCCC)CCOCCOCCOC)cc(OCCCC[N+](C)(CCCCCC)CCOCCOCCOC)c3)cc2)cc(OCCCC[N+](C)(CCCCCC)CCOCCOCCOC)c1)CCOCCOCCOC` (centres unmarked) [Formula KK] gave an MIC in the data set on E. coli K12 (ATCC 47076) of 16 µg/mL.

As to `C[N+](C)(C)CCCCCCOc1cc(/C=C/c2cc(OCCCCCC[N+](C)(C)C)cc(OCCCCCC[N+](C)(C)C)c2)cc(OCCCCCC[N+](C)(C)C)c1` [Formula A], the viability at 24 h in the data set “Cytotoxicity, MTT assay” is 68%. In data set [1], this molecule displayed an IC50 greater than 128 µg/mL.

As to `C[N+](C)(C)CCCCCCN(CCCCCC[N+](C)(C)C)c1ccc(/C=C/c2ccc(/C=C/c3ccc(N(CCCCCC[N+](C)(C)C)CCCCCC[N+](C)(C)C)cc3)cc2)cc1` [Formula UU], the IC50 in data set [1] (setting [5]) is 43.7 µg/mL.

As to `C[N+]12CC[N+](CCCOc3cc(/C=C/c4ccc(/C=C/c5cc(OCCC[N+]67CC[N+](C)(CC6)CC7)cc(OCCC[N+]67CC[N+](C)(CC6)CC7)c5)cc4)cc(OCCC[N+]45CC[N+](C)(CC4)CC5)c3)(CC1)CC2` [Formula DD], the results for the MIC (in data set [3]; in the data set on E. coli K12 (ATCC 47076)) were 16 µg/mL and 64 µg/mL, respectively. Further, the viability at 24 h in the data set “Cytotoxicity, MTT assay” (Hep G2 (ATCC HB-8065) cells) turned out to be 85%. In addition, in data set [1] (setting [5]), the IC50 is greater than 128 µg/mL.

Turning to `C[N+]1(CCCCCCOc2cc(/C=C/c3cc(OCCCCCC[N+]4(C)CCCCC4)cc(OCCCCCC[N+]4(C)CCCCC4)c3)cc(OCCCCCC[N+]3(C)CCCCC3)c2)CCCCC1.[I-].[I-].[I-].[I-]` [Formula N], the MIC was 2 µg/mL in data set [3] and 128 µg/mL in the data set with E. coli K12 (ATCC 47076). For the same molecule, in data set [2] (NIH3T3, 24 h), the IC50 amounted to 124 µg/mL.

As for `C[N+](C)(CCCN)CCCOc1cc(/C=C/c2ccc(/C=C/c3cc(OCCC[N+](C)(C)CCCN)cc(OCCC[N+](C)(C)CCCN)c3)cc2)cc(OCCC[N+](C)(C)CCCN)c1` [Formula PP], the MIC was 16 µg/mL in data set [3] and 32 µg/mL in the data set with E. coli K12 (ATCC 47076).

For `CC(C)CCC[N+](C)(C)CCCCOc1cc(/C=C/c2ccc(/C=C/c3cc(OCCCC[N+](C)(C)CCCC(C)C)cc(OCCCC[N+](C)(C)CCCC(C)C)c3)cc2)cc(OCCCC[N+](C)(C)CCCC(C)C)c1.[I-].[I-].[I-].[I-]` [Formula V], the MIC with E. coli K12 (ATCC 47076) came out at 4 µg/mL.
